{"source": "patent US5248690A", "about": "“Method for treatment of neurodegenerative diseases” (R. J. Reynolds Tobacco Company, priority 1992, dated 1993)", "biological_target": "high affinity nicotinic receptors", "experiment": "Inhibition of L-[3H]nicotine binding to mouse brain membrane preparations", "set-up": "species or system Mice (DBA strain)", "details": "10 nM L-[3H]nicotine, 2 hr at 4° C., mouse brain membranes, Ki calculated from IC50 by method of Cheng et al.", "procedure": "Mice (DBA strain) were maintained on a 12 hour light/dark cycle and were allowed free access to water and food supplied by Wayne Lab Blox, Madison, Wis. Animals used in the present studies were 60 to 90 days of age and weighed 20 to 25 g. Brain membrane preparations were obtained from pooled brain tissue of both males and females.\nMice were killed by cervical dislocation. Brains were removed and placed on an ice-cold platform. […] Protein was determined by the method of Lowry, et al., J. Biol. Chem., Vol. 193, pp. 265-275 (1951), using bovine serum albumin as the standard.\nThe binding of L-[^3 H]nicotine was measured using a modification of the method of Romano, et al., Science, Vol. 210, pp. 647-650 (1980) as described previously by Marks, et al., Mol. pharmacol., Vol. 30, pp. 427-436 (1986). The binding of L-[^3 H]nicotine was measured using a 2 hr. incubation at 4° C. […] Nonspecific binding was determined by inclusion of 10 μM nonradioactive nicotine in the incubations. The inhibition of L-[^3 H]nicotine binding by test compounds was determined by including one of eight different concentrations of the test compound in the incubation. […] Inhibition constants (Ki values) were calculated from the IC50 values using the method of Cheng, et al., Biochem. Pharmacol., Vol. 22, pp. 3099-3108 (1973). […]", "note": "pKi: −log10 of the molar value."}
{"smiles": "CN1CCCC1c1ccccc1", "note": "(racemic) [1-methyl-2-phenylpyrrolidine]", "values": [{"measurement": "pKi", "result": 5.46}]}
